Test results reported in patent US6818407B2, “Anti-endotoxic antimicrobial cationic peptides and methods of use therfor” (priority 1998, dated 2004).
Ends that are not written are not given here.

How the values were obtained:
[1] = tested on: β-lactamase derepressed mutant (H547) of P. aeruginosa; assay: microbe, parasite or virus in culture; assay type: cell-based; settings: P. aeruginosa H547; for (B) MIC of Carb when combined with peptide: Carbenicillin with peptide at concentration (A); for MIC A MIC of Peptides: peptide alone; for (A) Peptide doses together with Carb: peptide concentration in combination with Carbenicillin
Experimental: (§1) The biological activity of the peptides can be determined by standard methods known to those of skill in the art, such as Aminimal inhibitory concentration (MIC)≅ assay described in the present examples, whereby the lowest concentration at which no change in OD is observed for a given period of time is recorded as MIC. Alternatively, Afractional inhibitory concentration (FIC)≅ is also useful for determination of synergy between the peptides of the invention, or the peptides in combination with known antibiotics. FICs are performed by checkerboard titrations of peptides in one dimension of a microtiter plate, and of antibiotics in the other dimension, for example. The FIC is calculated by looking at the impact of one antibiotic on the MIC of the other and vice versa. […] Preferably, an FIC of less than 0.5 is obtained for synergism. As used herein, FIC can be determined as follows: [formula]
(§2) To test whether the peptides of the invention synergize with various antibiotics, the following method was employed. Fractional Inhibitory Concentration (FIC) was used to determine synergy of peptides combined with antibiotics (e.g., carbenicillin/ciprofloxacin) against Pseudomonas aeruginosa. The following methodology was followed:
(§3) (1) Determination of MIC of cationic peptides (MIC A):
(§4) 100 μl Mueller Hinton broth (MHB) was added per well
(§5) 12.5 μl of 10× test concentration peptide was added per well to get final peptide concentration of e.g., 128, 64, 32, . . . 0.025 μg/ml from row 1 to 11;
(§6) 10 μl of 10^−4 dilution of overnight bacterial culture was added per well.
(§7) (2) Determination of MIC of Carbenicillin/Ciprofloxacin (MIC B):
(§8) 100 μl MHB was added per well;
(§9) 100 μl of 2× test concentration of antibiotic was added in the first well of the row, and doubling dilutions performed across the plate from column 1 to 11;
(§10) (3) Determination of MIC of antibiotics (B) when combined with peptides at concentration A:
(§11) 100 μl Carbenicillin (512 μg/ml) or Ciprofloxacin (8 μg/ml) was added in each well of column 1; doubling dilutions were performed across the plate;
(§12) 100 μl of the peptide was added in all wells of row 1, mixed, and 100 μl withdrawn and added to row 2, etc., creating a checkerboard titration.
(§13) 10 μl of 10^−4 dilution of overnight culture was added per well;
(§14) plates were incubated at 37EC for 18-24 hours. Combination MIC values A and B were taken as the lowest concentration of drug that reduced bacterial growth by more than 50% in any given column.
(§15) (4) FIC index=FICA+FICB=(A)/MIC A+(B)/MIC B. An FIC index of approximately 0.5 or less indicates synergy; 1.0 reflects additivity; and >1.0 indicates antagonism.

[2] = tested on: mutant (Nal B, H744) of P. aeruginosa; assay: microbe, parasite or virus in culture; assay type: cell-based; settings: for (B) MIC of Cipro when combined with peptide: ciprofloxacin with peptide at concentration (A); for MIC A MIC of Peptides: peptide alone, P. aeruginosa mutant Nal B, H744 (Table 5); for (A) Peptide doses together with Cipro: peptide concentration in combination with ciprofloxacin
Experimental: as §1, §2, §3, §4, §5, §6, §7, §8, §9, §10, §11, §12, §13, §14, §15

[3] = Lethal endotoxemia in galactosamine-sensitized mice; assay type: in vivo, CD-1 mice; settings: peptide 200 μg intraperitoneal within 10 min of 10 μg LPS; 24 hours post injection; 5 mice per group; no peptide 100
Experimental: To confirm this in vivo, endotoxic shock was induced by intraperitoneal injection of 10 μg of E.coli 0111:B4 LPS in phosphate-buffered saline (PBS; pH 7.2) into galactosamine-sensitized 8- to 10- week old female CD-1 mice (5 per group). In experiments involving peptides, 200 μg in 100 μl of sterile water was injected at separate intraperitoneal sites within 10 min of LPS injection. Survival was monitored at 24 hours post injection.

[4] = tested on: S. aureus; assay: MIC, broth microdilution assay in polypropylene microtiter trays; assay type: cell-based; settings: average of three separate experiments
Experimental: as §1
(§16) A method which employed polypropylene microtiter trays in a broth microdilution assay was developed.

[5] = tested on: S. aureus K147; assay: as above; assay type: cell-based; settings: average of three separate experiments
Experimental: as §1, §16

[6] = tested on: E. coli; assay: as above; assay type: cell-based; settings: average of three separate experiments
Experimental: as §1, §16

[7] = tested on: P. aeruginosa; assay: as above; assay type: cell-based; settings: average of three separate experiments
Experimental: as §1, §16

[8] = tested on: S. epidermis; assay: as above; assay type: cell-based; settings: average of three separate experiments
Experimental: as §1, §16

[9] = tested on: Salmonella typhi; assay: Synergy study (checkerboard titration) with hen white lysozyme; assay type: cell-based; settings: for Lowest [CP] showing synergy: cationic peptide concentration, combined with lysozyme; for Lowest [Lyso] showing synergy: lysozyme concentration, combined with the peptide
Experimental: as §1

[10] = tested on: P. aeruginosa (H103); assay: as above; assay type: cell-based; settings: for Lowest [CP] showing synergy: cationic peptide concentration, combined with lysozyme; for Lowest [Lyso] showing synergy: lysozyme concentration, combined with the peptide
Experimental: as §1

[11] = tested on: E. coli; assay: as above; assay type: cell-based; settings: for Lowest [CP] showing synergy: cationic peptide concentration, combined with lysozyme; for Lowest [Lyso] showing synergy: lysozyme concentration, combined with the peptide
Experimental: as §1

[12] = tested on: Pseudomonas aeruginosa strain M2; assay: Protection of neutropenic CD-1 mice challenged with Pseudomonas aeruginosa; assay type: in vivo; design: Survival post bacterial challenge, surviving mice: reference not given here; settings: for Survival (%) post bacterial challenge: PBS 8
Experimental: CD-1 mice were induced to be neutropenic via 3 intraperitoneal injections of cyclophosphamide ([…]) every another day. Immediately after the third administration of cyclophosphamide, the mice were challenged by intraperitoneal injection of Pseudomonas aeruginosa strain M2 (200-300 organisms/mouse). Cationic peptides (200 µg per mouse=8 mg/kg) in 100 µl buffered citrate were injected intraperitoneally at 30 min (single dose) or 30 min and 16 hrs (double dose) post bacterial challenge, respectively. The data were the average values of 2 individual experiments. PBS was used as a control. […] In general single dose protection studies gave better protection than double dose experiments.

With `CC[C@H](C)[C@H](NC(=O)CNC(=O)[C@@H](NC(=O)[C@H](CCCCN)NC(=O)[C@H](CCCCN)NC(=O)[C@H](Cc1ccccc1)NC(=O)[C@H](CC(C)C)NC(=O)[C@@H](N)CCCCN)[C@@H](C)CC)C(=O)NCC(=O)N[C@@H](C)C(=O)N[C@H](C(=O)N[C@@H](CC(C)C)C(=O)N[C@@H](CCCCN)C(=O)N[C@H](C(=O)N[C@@H](CC(C)C)C(=O)N[C@@H](CCCCN)C(=O)N[C@H](C(=O)N[C@@H](CC(C)C)C(=O)N[C@H](C(=O)N[C@H](C(=O)NCC(=O)N[C@@H](CC(C)C)C(=O)N1CCC[C@H]1C(=O)N[C@@H](C)C(=O)N[C@@H](CC(C)C)C(=O)N[C@@H](CCCCN)C(=O)N[C@@H](CC(C)C)C(=O)N[C@H](C(=O)N[C@@H](CC(C)C)C(=O)N[C@@H](CCCCN)C(=O)O)[C@@H](C)O)[C@@H](C)O)[C@@H](C)O)C(C)C)C(C)C)C(C)C` [CM5] the “(B) MIC of Carb when combined with peptide” value (“(B) MIC of Carb when combined” below) [1] was 16 mg/L, the FIC index ([1]; peptide + Carbenicillin, about 0.5 or less synergy, 1.0 additivity, >1.0 antagonism) was 0.38 and the “MIC A MIC of Peptides” value [1] was 32 mg/L. For the same compound, the “(A) Peptide doses together with Carb” value [1] was 4 µg/mL, the “(B) MIC of Cipro when combined with peptide” value (shortened to “(B) MIC of Cipro when combined”) ([2]; Nal B, H744) was “.125 mg/L” and the FIC index ([2]; peptide + ciprofloxacin, Nal B, H744) was “.75”. The “MIC A MIC of Peptides” value [2] was 4 mg/L, the “(A) Peptide doses together with Cipro” value ([2]; Nal B, H744) was 1 µg/mL and the “Mortality (%)” value [3] was 80%. The “MIC S. aureus” value [4] was greater than 64 mg/L, the “MIC S. aureus K147” value [5] was 64 mg/L and the “MIC E. coli” value [6] was 4 mg/L. For the same compound, the “MIC P. aeruginosa” value [7] was 16 mg/L, the “MIC S. epidermis” value [8] was 11 mg/L and the “FIC for combination of cationic peptide and lysozyme” value (from here on “FIC for combination”) [9] was 0.56. For the same compound, the “Lowest [CP] showing synergy” value [9] was 10.4 µg/mL, the “Lowest [Lyso] showing synergy” value [9] was 62.5 µg/mL and the “FIC for combination” value [10] was 0.63. The “Lowest [CP] showing synergy” value [10] was 10.4 µg/mL, the “Lowest [Lyso] showing synergy” value [10] was 125 µg/mL and the “FIC for combination” value [11] was 0.27. For the same compound, the “Lowest [CP] showing synergy” value [11] was 1.3 µg/mL and the “Lowest [Lyso] showing synergy” value [11] was 7.8 µg/mL.

With H-KWKSFIKKLTSAAKKVVTTAKPLALIS-OH [CM1] the “(B) MIC of Carb when combined” value [1] was 64 mg/L, the “MIC A MIC of Peptides” value [1] was 16 mg/L and the “(A) Peptide doses together with Carb” value [1] was 2 µg/mL. The “(B) MIC of Cipro when combined” value ([2]; Nal B, H744) was “.25 mg/L”, the “MIC A MIC of Peptides” value [2] was 2 mg/L and the “(A) Peptide doses together with Cipro” value ([2]; Nal B, H744) was 1 µg/mL. For the same compound, the “Mortality (%)” value [3] was 100%, the “MIC S. aureus” value [4] was 64 mg/L and the “MIC S. aureus K147” value [5] was 32 mg/L. The “MIC E. coli” value [6] was 1 mg/L, the “MIC P. aeruginosa” value [7] was 5 mg/L and the “MIC S. epidermis” value [8] was 21 mg/L. The “FIC for combination” value [9] was 0.53, the “Lowest [CP] showing synergy” value [9] was 0.531 µg/mL and the “Lowest [Lyso] showing synergy” value [9] was 31.3 µg/mL. For the same compound, the “FIC for combination” value [10] was 0.28, the “Lowest [CP] showing synergy” value [10] was 0.65 µg/mL and the “Lowest [Lyso] showing synergy” value [10] was 7.8 µg/mL. For the same compound, the “FIC for combination” value [11] was 0.19, the “Lowest [CP] showing synergy” value [11] was 0.041 µg/mL and the “Lowest [Lyso] showing synergy” value [11] was 7.8 µg/mL.

With KWKSFIKKLTKAAKKVVTTAKKPLIV [CM2] the “Survival post bacterial challenge, surviving mice” value (from here on “Survival post bacterial challenge”) ([12]; double dose (200 μg per mouse i.p. at 30 min and 16 hrs), 16 hr) was 14, the “Survival post bacterial challenge” value ([12]; double dose, 24 hr) was 14 and the “Survival post bacterial challenge” value ([12]; double dose, 41 hr) was 10. For the same compound, the “Survival post bacterial challenge” value ([12]; double dose, 48 hr) was 7, the “Survival post bacterial challenge” value ([12]; double dose, 64 hr) was 7 and the “Survival (%) post bacterial challenge” value ([12]; double dose, 64 hr) was 50%. For the same compound, the “Survival post bacterial challenge” value ([12]; double dose, 72 hr) was 7, the “Survival (%) post bacterial challenge” value ([12]; double dose, 72 hr) was 50% and the “Survival post bacterial challenge” value ([12]; double dose, 96 hr) was 6. The “Survival (%) post bacterial challenge” value ([12]; double dose, 96 hr) was 42%, the “Survival post bacterial challenge” value ([12]; single dose (200 μg per mouse i.p. at 30 min), 16 hr) was 15 and the “Survival post bacterial challenge” value ([12]; single dose, 24 hr) was 15. The “Survival post bacterial challenge” value ([12]; single dose, 41 hr) was 13, the “Survival post bacterial challenge” value ([12]; single dose, 48 hr) was 12 and the “Survival post bacterial challenge” value ([12]; single dose, 64 hr) was 11. The “Survival (%) post bacterial challenge” value ([12]; single dose, 64 hr) was 73%, the “Survival post bacterial challenge” value ([12]; single dose, 72 hr) was 11 and the “Survival (%) post bacterial challenge” value ([12]; single dose, 72 hr) was 73%. The “Survival post bacterial challenge” value ([12]; single dose, 96 hr) was 10, the “Survival (%) post bacterial challenge” value ([12]; single dose, 96 hr) was 66% and the “(B) MIC of Carb when combined” value [1] was 64 mg/L. The “MIC A MIC of Peptides” value [1] was 4 mg/L, the “(A) Peptide doses together with Carb” value [1] was “.5 µg/mL” and the “(B) MIC of Cipro when combined” value ([2]; Nal B, H744) was “.25 mg/L”. The “MIC A MIC of Peptides” value [2] was 1 mg/L, the “(A) Peptide doses together with Cipro” value ([2]; Nal B, H744) was “.5 µg/mL” and the “Mortality (%)” value [3] was 80%. For the same compound, the “MIC S. aureus” value [4] was greater than 64 mg/L, the “MIC S. aureus K147” value [5] was greater than 64 mg/L and the “MIC E. coli” value [6] was 1 mg/L. The “MIC P. aeruginosa” value [7] was 3 mg/L, the “MIC S. epidermis” value [8] was 5 mg/L and the “FIC for combination” value [9] was 0.53. The “Lowest [CP] showing synergy” value [9] was 2.61 µg/mL, the “Lowest [Lyso] showing synergy” value [9] was 31.3 µg/mL and the “FIC for combination” value [10] was 0.37. For the same compound, the “Lowest [CP] showing synergy” value [10] was 1.3 µg/mL, the “Lowest [Lyso] showing synergy” value [10] was 7.8 µg/mL and the “FIC for combination” value [11] was 0.25. The “Lowest [CP] showing synergy” value [11] was 0.081 µg/mL and the “Lowest [Lyso] showing synergy” value [11] was 7.8 µg/mL.
